Paper PMC9539280 (Advanced Science, 2022)
Structures can show the parent of a compound that is named as a salt. Where two headings read alike, the source gives them in different places.

Tests used:
[1] = cited from earlier work
hCMs [2] = test: Sarcomere organization by α-actinin immunostaining in hCMs; details: 6 days
[3] = test system: hEHTs (human engineered heart tissues); test: TUNEL/α-actinin staining of hEHTs; details: for toxicity to hEHTs: 2 × 10^−6 and 5 × 10^−6 M for 3 days
[4] = test system: hCMs (human pluripotent stem cell-derived cardiomyocytes); test: Cytotoxicity assay, calcein-AM/PI double staining, relative cell viability; assay type: cell-based; details: for cell viability of hCMs: 6 days, escalating concentrations (0.03-3 or 1-30 × 10^−6 M), calcein-AM/PI; for effects on normal hCMs (viability, apoptosis, sarcomere organization): absence of remdesivir, 3 μM and 10 μM
Protocol: (§1) hCMs were dissociated with 0.25% trypsin/EDTA (25200072, Gibco) and then seeded into 384‐well plates at the density of 8 × 10^3 cells per well. 24 h after seeding, cells were exposed to the drugs at the indicated concentrations for 6 days. Culture media were fully changed every 3 days with new drug supplementation. After drug treatment, cells were stained with calcein‐AM/PI/Hoechst for 20 min using calcein‐AM/PI double staining kit (C542, DOJINDO). Images were captured by the Operetta CLS High‐Content Analysis System (PerkinElmer). Number of live cells (calcein‐AM+/PI‐) and dead cells (PI+) was quantified by using the Harmony 4.9 software (PerkinElmer). Number of live cells was used to calculate the “relative cell viability” as follows (1) relarivecellviability=numberoflivecellsineachtreatment/numberoflivecellsinDMSOcontrol×100%

hCMs [5] = test: Calcium measurement in hCMs under electrical field stimulation
hCMs [6] = test: TUNEL apoptosis assay in hCMs; details: 6 days
hCMs [7] = test: Spontaneous calcium transient measurement (Fluo-4) in hCMs; details: 6 days; for calcium transient amplitude: escalating concentrations (1-20 μM)
hCMs [8] = test: Mitochondrial (MitoSox) and intracellular (DCFH-DA) ROS measurement in hCMs; assay type: cell-based, human; details: remdesivir 10 μM, 4 or 6 days; for could alter the level of ROS in hCMs when co-stimulated with remdesivir: Asta 10 μM, Vc 50 μg/ml, Vb1 10 μg/ml, NAC 1 mM, GSH 25 μg/ml
Protocol: Mitochondrial‐associated ROS and intracellular ROS were measured using MitoSox Red Mitochondrial Superoxide Indicator (M‐36008, ThermoFisher) and DCFH‐DA (S0033S, Beyotime), respectively. For mitochondrial‐associated ROS measurement, hCMs were loaded with 4 × 10^−6 M MitoSox dye in Hanks' balanced salt solution buffer for 15 min at 37 °C and washed twice with PBS. The MitoSox fluorescence (excitation/emission = 510/580 nm) was detected and quantified by the Operetta CLS High‐Content Analysis System. For intracellular ROS measurement, hCMs were loaded with 10 × 10^−6 M DCFH‐DA in serum‐free medium for 20 min at 37 °C and washed twice with serum‐free medium. The DCFH fluorescence (excitation/emission = 488/525 nm) was detected and quantified by the Operetta CLS High‐Content Analysis System.

[9] = test system: mitochondrial permeability transition pore; details: not told; cited from earlier work
[10] = test system: hEHTs (human engineered heart tissues); test: Contractile force / spontaneous contractility of hEHTs
remdesivir-treated hCMs = test: High-throughput screening and validation of compounds protective against remdesivir (cell viability); assay type: cell-based, human; details: for remdesivir-induced cardiotoxicity (cell viability), protection: 10 × 10^−6 or 25 × 10^−6 M remdesivir for 6 days with co-administration
Protocol: as §1
hCMs were seeded into 384‐well plates at a density of 8 × 10^3 cells per well. 24 h after seeding, the cells were treated with either 25 × 10^−6 M remdesivir alone or remdesivir with the chemicals from a Bioactive Compound Library (Topscience) consisted of 2464 natural compounds and US FDA‐approved drugs for 6 days. Chemicals at the concentration of 5 × 10^−6 M were transferred to the plates by using a Tecan Freedom EVO 150 liquid handler.

[11] = cited from earlier work; for Cardiotoxic effects: reported clinical cardiotoxic effects of the repurposed drug, 10a,b, 10c, 41, 42
hCMs [12] = test system: hCMs; parameters: method as in PMID 34142159; details: ref 25a; cited from earlier work
[13] = spontaneous, escalating concentrations (lopinavir: high dosage only)
[14] = 2 × 10^−6 M remdesivir and 2 × 10^−6 M astaxanthin for 2 days
[15] = read-out: C max, maximum plasma concentration, ref U.S. FDA or published literature

Compound: Cc1cccc(C)c1OCC(=O)N[C@@H](Cc1ccccc1)[C@@H](O)C[C@H](Cc1ccccc1)NC(=O)[C@H](C(C)C)N1CCCNC1=O [Lopinavir, lopinavir]
- Cmax ([1]; in vivo): 42.1 µM
- sarcomere organization of hCMs (hCMs [2]): sarcomeric disarray
- toxicity to hEHTs [3]: toxic to hEHTs
- cell viability of hCMs [4]: dose‐dependent decrease
- intracellular calcium handling properties of hCMs (hCMs [5]): impair
- apoptosis of hCMs (TUNEL) (hCMs [6]): increased apoptosis
- calcium transient amplitude (hCMs [7]; spontaneous): tended to decrease
- time to 50% decay of the calcium transients (hCMs [7]; [13]): significantly increased
- time to peak of the calcium transients (hCMs [7]; [13]): significantly increased

Compound: N#CC[C@H](C1CCCC1)n1cc(-c2ncnc3[nH]ccc23)cn1 [Ruxolitinib, ruxolitinib]
- Cmax ([1]; in vivo): 7.1 µM

Compound: O=C1O[C@H]([C@@H](O)CO)C(O)=C1O [vitamin C]
- could alter the level of ROS in hCMs when co-stimulated with remdesivir (hCMs [8]): neither

Compound: CC1=C(/C=C/C(C)=C/C=C/C(C)=C/C=C/C=C(C)/C=C/C=C(C)/C=C/C2=C(C)C(=O)[C@@H](O)CC2(C)C)C(C)(C)C[C@H](O)C1=O [astaxanthin]
- opening of mitochondrial permeability transition pore [9]: inhibit the opening
- cell apoptosis in hEHTs exposed to remdesivir [3, 14]: remarkably decreased
- effects on normal hCMs (viability, apoptosis, sarcomere organization) [4]: little effects
- frequency of abnormal beating caused by remdesivir (hCMs [5]; 10 × 10^−6 M remdesivir plus 10 × 10^−6 M astaxanthin, 6 days): relieved dramatically
- could alter the level of ROS in hCMs when co-stimulated with remdesivir (hCMs [8]): neither
- decrease in contractile force induced by remdesivir in hEHTs [10, 14]: significantly resolved
- proportion of abnormal beating induced by remdesivir in hEHTs [10, 14]: significantly resolved
- remdesivir-induced alterations in calcium transient duration (hCMs [7]; 10 × 10^−6 M remdesivir plus 10 × 10^−6 M astaxanthin): reversed
- protective effect against remdesivir compared with the other hits (remdesivir-treated hCMs): most prominent protective effect
- remdesivir-induced cardiotoxicity (cell viability), protection (remdesivir-treated hCMs): confirmed to reduce

Compound: C[C@H]1[C@H](OC(=O)CCC(=O)O)O[C@@H]2O[C@@]3(C)CC[C@H]4[C@H](C)CC[C@@H]1[C@@]24OO3 [Artesunate, artesunate]
- Cmax ([1]; in vivo): 0.17 µM

Compound: ivermectin
- Cmax [1, 15]: 0.049 µM
- associated adverse cardiac effect [11]: tachycardia

Compound: CC(C)CN(C[C@@H](O)[C@H](Cc1ccccc1)NC(=O)O[C@H]1CO[C@H]2OCC[C@H]21)S(=O)(=O)c1ccc(N)cc1 [Darunavir, darunavir]
- Cmax [1, 15]: 12.7 µM

Compound: CCN(CC)CCCC(C)Nc1ccnc2cc(Cl)ccc12 (stereo not shown) [Chloroquine, chloroquine]
- Cmax [1, 15]: 1.17 µM

Compound: Cc1ncc(C[n+]2csc(CCO)c2C)c(N)n1 [vitamin B1]
- could alter the level of ROS in hCMs when co-stimulated with remdesivir (hCMs [8]): neither

Compound: C[C@H]1C[C@@H]2[C@H]([C@@H](O)C[C@@]3(C)[C@H]2CC[C@]3(O)C(=O)CO)[C@@]2(C)C=CC(=O)C=C12 [Methylprednisolone, methylprednisolone]
- Cmax ([1]; in vivo): 1.26 µM

Compound: COCCCC/C(=N\OCCN)c1ccc(C(F)(F)F)cc1 [Fluvoxamine, fluvoxamine]
- Cmax [1, 15]: 0.73 µM

Compound: CON=C(C(=O)NC1C(=O)N2C(C(=O)O)=C(CSC(=O)c3ccco3)CSC12)c1csc(N)n1 (stereo not shown) [ceftiofur hydrochloride]
- effects on normal hCMs (viability, apoptosis, sarcomere organization) [4]: little effects
- remdesivir-induced cardiotoxicity (cell viability), protection (remdesivir-treated hCMs): confirmed to reduce

Compound: Cc1c(-c2ccc(-c3ccccc3F)cc2)nc2ccc(F)cc2c1C(=O)O [Brequinar, brequinar]
- Cmax ([1]; in vivo): 16 µM

Compound: C[C@@H]1CCN(C(=O)CC#N)C[C@@H]1N(C)c1ncnc2[nH]ccc12 [Tofacitinib, tofacitinib]
- Cmax [1, 15]: 0.135 µM

Compound: CC(=O)Oc1ccccc1C(=O)Nc1ncc([N+](=O)[O-])s1 [Nitazoxanide, nitazoxanide]
- Cmax ([1]; in vivo): 17.5 µM

Compound: CC1(C)C(=O)N(c2ccc(C#N)c(C(F)(F)F)c2F)C(=S)N1c1ccc(CCCc2ncco2)nc1 [Proxalutamide, proxalutamide]
- Cmax [1, 15]: 29 µM

Compound: OCCOCCN1CCN(C2=Nc3ccccc3Sc3ccccc32)CC1 [quetiapine fumarate]
- effects on normal hCMs (viability, apoptosis, sarcomere organization) [4]: little effects
- remdesivir-induced cardiotoxicity (cell viability), protection (remdesivir-treated hCMs): confirmed to reduce

Compound: CCC(CC)COC(=O)[C@H](C)N[P@](=O)(OC[C@H]1O[C@@](C#N)(c2ccc3c(N)ncnn23)[C@H](O)[C@@H]1O)Oc1ccccc1 [Remdesivir, remdesivir]
- Cmax [1, 15]: 9.03 µM
- sarcomere organization of hCMs (hCMs [2]): sarcomeric disarray
- toxicity to hEHTs [3]: toxic to hEHTs
- cell viability of hCMs [4]: dose‐dependent decrease
- intracellular calcium handling properties of hCMs (hCMs [5]): impair
- ROS level in hCMs (hCMs [8]; MitoSox and DCFH-DA): did not alter
- hEHT function (tissue level cardiotoxicity) [10]: weaken hEHT function
- abnormal beating of hEHTs (spontaneous contractility) ([10]; 2 × 10^−6 or 5 × 10^−6 M for 3 days): more severe
- passive force of hEHTs ([10]; 3 days): increases of the passive force
- contractile force of hEHTs ([10]; progressive stretch 0-12%, 3 days): much lower
- ROS levels in hCMs (hCMs [12]): does not alter
- mitochondrial fragmentation (hCMs [12]): induce mitochondrial fragmentation
- mitochondrial respiration (hCMs [12]): suppress mitochondrial respiration
- apoptosis of hCMs (TUNEL) (hCMs [6]): increased apoptosis
- Cardiotoxic effects [11]: Cardiac arrest,^[ [10a,b] ^] heart failures,^[ [10c] ^] arrhythmias^[ [10c] ^]

Compound: CCOC(=O)C1=C[C@@H](OC(CC)CC)[C@H](NC(C)=O)[C@@H](N)C1 [oseltamivir]
- associated adverse cardiac effect [11]: tachycardia

Compound: N[C@@H](CCC(=O)N[C@@H](CS)C(=O)NCC(=O)O)C(=O)O [reduced L‐Glutathione]
- could alter the level of ROS in hCMs when co-stimulated with remdesivir (hCMs [8]): neither

Compound: CCS(=O)(=O)N1CC(CC#N)(n2cc(-c3ncnc4[nH]ccc34)cn2)C1 [Baricitinib, baricitinib]
- Cmax [1, 15]: 3.69 µM

Compound: CC(=O)N[C@@H](CS)C(=O)O [N‐acetylcysteine]
- could alter the level of ROS in hCMs when co-stimulated with remdesivir (hCMs [8]): neither

Compound: CC(C)(C)[C@H](NC(=O)C(F)(F)F)C(=O)N1C[C@H]2[C@@H]([C@H]1C(=O)N[C@H](C#N)C[C@@H]1CCNC1=O)C2(C)C [Nirmatrelvir, nirmatrelvir]
- Cmax ([1]; in vivo): 6.66 µM

Compound: CC[C@H]1OC(=O)[C@H](C)[C@@H](O[C@H]2C[C@@](C)(OC)[C@@H](O)[C@H](C)O2)[C@H](C)[C@@H](O[C@@H]2O[C@H](C)C[C@H](N(C)C)[C@H]2O)[C@](C)(O)C[C@@H](C)CN(C)[C@H](C)[C@@H](O)[C@]1(C)O [Azithromycin, azithromycin]
- Cmax [1, 15]: 0.67 µM
- Cardiotoxic effects [11]: Ventricular arrhythmias^[ [42] ^]

Compound: CC(C)c1nc(CN(C)C(=O)N[C@H](C(=O)N[C@@H](Cc2ccccc2)C[C@H](O)[C@H](Cc2ccccc2)NC(=O)OCc2cncs2)C(C)C)cs1 [Ritonavir, ritonavir]
- Cmax ([1]; in vivo): 1.32 µM
- sarcomere organization of hCMs (hCMs [2]): sarcomeric disarray
- toxicity to hEHTs [3]: toxic to hEHTs
- intracellular calcium handling properties of hCMs (hCMs [5]): impair
- apoptosis of hCMs (TUNEL) (hCMs [6]): increased apoptosis
- Cardiotoxic effects [11]: QTc prolongation and arrhythmias^[ [9] ^]
- calcium transient amplitude (hCMs [7]; spontaneous): tended to decrease

Compound: CCN(CCO)CCCC(C)Nc1ccnc2cc(Cl)ccc12 (stereo not shown) [Hydroxychloroquine, hydroxychloroquine]
- Cmax ([1]; in vivo): 1.35 µM
- Cardiotoxic effects [11]: QTc prolongation^[ [41] ^]

Compound: CC(C)C(=O)OC[C@H]1O[C@@H](n2ccc(NO)nc2=O)[C@H](O)[C@@H]1O [Molnupiravir, molnupiravir]
- Cmax ([1]; in vivo): 10 to 15 µM

Compound: NC(=O)c1nc(F)c[nH]c1=O [Favipiravir, favipiravir]
- Cmax ([1]; in vivo): 115 µM
